According to paper PMC7998669, “7-(2-Anilinopyrimidin-4-yl)-1-benzazepin-2-ones Designed by a “Cut and Glue” Strategy Are Dual Aurora A/VEGF-R Kinase Inhibitors” (Molecules, 2021):

What was measured:
Experiment in all cases: NCI cancer cell line screen (sulforhodamin B)
Format in all cases: cell-based
HS 578T = settings: Homo sapiens, Breast, 48 h, read-out: log10 GI50 (converted)
Procedure: (§1) The new dual Aurora A/VEGF-R inhibitors 2e and 2n were selected by the National Cancer Institute for screening in its broad cancer cell line panel. The NCI in vitro assay is performed by incubation of cells with test compounds for 48 h and subsequent cell fixation with trichloroacetic acid. The pink dye sulforhodamin B is added, which binds to the proteins of the fixed cells. After washing and solubilizing the bound stain, the optical density is measured spectrophotometrically to determine the relative proliferation of treated and untreated cells.
(§2) Simultaneous inhibition of the Aurora A kinase and the VEGF-R2/3 receptor kinases may represent an interesting dual activity for the treatment of cancer. The National Cancer Institute selected the compounds 2e and 2n as representatives with particularly high inhibitory activity on the above kinases for testing in the IVCLS (in vitro cell line screening). In this screening, compounds are tested for antiproliferative activity on about 60 in vitro cultivated tumor cell lines. Based on this very broad screening on cell lines from nine tumor entities the general antiproliferative potency of compounds is determined. In addition, the bioinformatic tool COMPARE allowed one to draw conclusions on the molecular target of the compounds from the activity patterns on the different cell lines. Similar molecular mechanisms of action of two compounds are assumed if a Pearson correlation coefficient (PCC) of > 0.6 is calculated by COMPARE [52, 53]. […] The selectivity profile of the two compounds is not very pronounced given the overall very similar proliferation inhibition values across all cell lines. A COMPARE analysis determined a PCC = 0.61 for the patterns of test compounds 2e and 2n, which is consistent with an analogous mechanism of action. However, whether this mechanism is actually based on the inhibition of the inhibited Aurora kinases and VEGF receptor kinases cannot be deduced from these profiles.

MALME-3M = settings: Homo sapiens, Melanoma, 48 h, read-out: log10 GI50 (converted)
Procedure: as §1, §2

NCI-H226 = settings: Homo sapiens; NCI-H226, NSCL; 48 h; read-out: log10 GI50 (converted)
Procedure: as §1, §2

SK-MEL-2 = settings: Homo sapiens; SK-MEL-2, Melanoma; 48 h; read-out: log10 GI50 (converted)
Procedure: as §1, §2

SF-268 = settings: Homo sapiens; SF-268, CNS; 48 h; read-out: log10 GI50 (converted)
Procedure: as §1, §2

MDA-MB-231/ATCC = settings: Homo sapiens, Breast, 48 h, read-out: log10 GI50 (converted)
Procedure: as §1, §2

NCI-H522 = settings: Homo sapiens; NCI-H522, NSCL; 48 h; read-out: log10 GI50 (converted)
Procedure: as §1, §2

ACHN = settings: Homo sapiens, Renal, 48 h, read-out: log10 GI50 (converted)
Procedure: as §1, §2

SNB-75 = settings: Homo sapiens; SNB-75, CNS; 48 h; read-out: log10 GI50 (converted)
Procedure: as §1, §2

NCI-H460 = settings: Homo sapiens; NCI-H460, NSCL; 48 h; read-out: log10 GI50 (converted)
Procedure: as §1, §2

HCC-2998 = settings: Homo sapiens; HCC-2998, Colon; 48 h; read-out: log10 GI50 (converted)
Procedure: as §1, §2

OVCAR-3 = settings: Homo sapiens; OVCAR-3, Ovarian; 48 h; read-out: log10 GI50 (converted)
Procedure: as §1, §2

NCI-H322M = settings: Homo sapiens, NSCL, 48 h, read-out: log10 GI50 (converted)
Procedure: as §1, §2

SN12C = settings: Homo sapiens, Renal, 48 h, read-out: log10 GI50 (converted)
Procedure: as §1, §2

A549/ATCC = settings: Homo sapiens, NSCL, 48 h, read-out: log10 GI50 (converted)
Procedure: as §1, §2

OVCAR-4 = settings: Homo sapiens; OVCAR-4, Ovarian; 48 h; read-out: log10 GI50 (converted)
Procedure: as §1, §2

HOP-92 = settings: Homo sapiens; HOP-92, NSCL; 48 h; read-out: log10 GI50 (converted)
Procedure: as §1, §2

DU-145 = settings: Homo sapiens; DU-145, Prostate; 48 h; read-out: log10 GI50 (converted)
Procedure: as §1, §2

MDA-MB-435 = settings: Homo sapiens; MDA-MB-435, Melanoma; 48 h; read-out: log10 GI50 (converted)
Procedure: as §1, §2

SK-MEL-5 = settings: Homo sapiens; SK-MEL-5, Melanoma; 48 h; read-out: log10 GI50 (converted)
Procedure: as §1, §2

HCT-116 = settings: Homo sapiens; HCT-116, Colon; 48 h; read-out: log10 GI50 (converted)
Procedure: as §1, §2

EKVX = settings: Homo sapiens, NSCL, 48 h, read-out: log10 GI50 (converted)
Procedure: as §1, §2

CCRF-CEM = settings: Homo sapiens, Leukemia, 48 h, read-out: log10 GI50 (converted)
Procedure: as §1, §2

RPMl-8226 = settings: Homo sapiens; RPMl-8226, Leukemia; 48 h; read-out: log10 GI50 (converted)
Procedure: as §1, §2

NCI-H23 = settings: Homo sapiens; NCI-H23, NSCL; 48 h; read-out: log10 GI50 (converted)
Procedure: as §1, §2

HT29 = settings: Homo sapiens, HT-29; HT29, Colon; 48 h; read-out: log10 GI50 (converted)
Procedure: as §1, §2

SW-620 = settings: Homo sapiens; SW-620, Colon; 48 h; read-out: log10 GI50 (converted)
Procedure: as §1, §2

UACC-62 = settings: Homo sapiens; UACC-62, Melanoma; 48 h; read-out: log10 GI50 (converted)
Procedure: as §1, §2

Structure (SMILES)	GI50 (HS 578T)	GI50 (MALME-3M)	GI50 (NCI-H226)	GI50 (SK-MEL-2)	GI50 (SF-268)	GI50 (MDA-MB-231/ATCC)	GI50 (NCI-H522)	GI50 (ACHN)	GI50 (SNB-75)	GI50 (NCI-H460)	GI50 (HCC-2998)	GI50 (OVCAR-3)	GI50 (NCI-H322M)	GI50 (SN12C)	GI50 (A549/ATCC)	GI50 (OVCAR-4)	GI50 (HOP-92)	GI50 (DU-145)	GI50 (MDA-MB-435)	GI50 (SK-MEL-5)	also measured
O=C1CCCc2cc(-c3ccnc(Nc4ccc(O)cc4)n3)ccc2N1 [Compound 2e, 7-[2-(4-Hydroxyanilino)pyrimidin-4-yl]-1,3,4,5-tetrahydro-2H-1-benzazepin-2-one]	4.9 µM	2.19 µM	29.5 µM	2.09 µM	4.37 µM	> 100 µM	4.47 µM	2.57 µM	3.39 µM	3.16 µM	8.71 µM	5.89 µM	4.07 µM	6.17 µM	4.47 µM	5.62 µM	6.61 µM	3.39 µM	3.63 µM	3.09 µM	GI50 (HCT-116): 3.63 µM; GI50 (EKVX): 34.7 µM; GI50 (CCRF-CEM): 2.51 µM; GI50 (RPMl-8226): 3.24 µM; GI50 (NCI-H23): > 100 µM; GI50 (HT29): 5.13 µM; GI50 (SW-620): 4.79 µM; GI50 (UACC-62): 9.12 µM
COc1ccc(Nc2nccc(-c3ccc4c(c3)CCCC(=O)N4)n2)cc1O [Compound 2n, 7-[2-(3-Hydroxy-4-methoxyanilino)pyrimidin-4-yl]-1,3,4,5-tetrahydro-2H-1-benzazepin-2-one]	2.14 µM	> 100 µM	9.12 µM	9.12 µM	7.41 µM	> 100 µM	10 µM	4.17 µM	2.19 µM	4.68 µM	22.9 µM	10 µM	30.9 µM	5.75 µM	7.94 µM	7.59 µM	0.214 µM	5.01 µM	5.25 µM	10 µM	GI50 (HCT-116): 3.8 µM; GI50 (EKVX): 43.7 µM; GI50 (CCRF-CEM): 3.89 µM; GI50 (RPMl-8226): 5.25 µM; GI50 (NCI-H23): 11.7 µM; GI50 (HT29): 13.2 µM; GI50 (SW-620): 4.47 µM; GI50 (UACC-62): 9.33 µM
